Earlier results in article PMC2714898 (European Journal of Clinical Pharmacology, 2009).

CCNCc1cc(Nc2ccnc3cc(Cl)ccc23)ccc1O [Desethylamodiaquine (DEAQ), N-desethylamodiaquine]
half-life: 60 to 437 h

C[C@H]1[C@@H](O)O[C@@H]2O[C@@]3(C)CC[C@H]4[C@H](C)CC[C@@H]1[C@@]24OO3 [Dihydroartemisinin (DHA), dihydroartemisinin]
elimination half-life (t½) (averages, after oral AS): 0.65 to 2.59 h
